Measurements as given in patent US20210393558A1, “METHODS AND COMPOSITIONS FOR PREVENTION AND TREATMENT OF PRESSURE ULCERS” (TECHNION RESEARCH AND DEVELOPMENT FOUNDATION LTD., priority 2017, published 2021).

Tests used:
[1] = 3%-cream applied on the skin, after 24 hours; cited from earlier work
C2C12 myoblasts [2] = assay: Membrane permeability (FITC-labeled 4 kDa dextran uptake, FACS) under damage-level 12% strain; format: cell-based, murine
Description: (§1) For each experiment, 300,000 cells were cultured 24 hours in parallel on 2-4 bioflexcell collagen-coated 6-well plates (Flexcell Inc., North Carolina). On the day of the experiment the cell growth media (with 0/1 mM NaPy) was replaced with media supplemented with different NaPy concentrations (0, 1 or 5 mM) and cells were incubated for 4 hours; this constitutes the pre-treatment of the cells. A four-hour pre-treatment was chosen as that is a clinically relevant time-scale during preparation e.g. before planned surgical procedures.
(§2) Each 6-well plate contained two wells with each of the three NaPy pre-treatment concentrations. After 4 hours, all but one of the bioflexcell plates were simultaneously subjected to damaging-level, sustained strain-loads of 12% radial stretching for 3 hours and one plate in each experiment was not stretched for control. […] Next, cells were centrifuged (900 rpm for 5 min) and resuspended in 0.5 ml of PBS within 12×75 mm polystyrene test tubes for use with fluorescence activated cell sorting (FACS).
(§3) Permeability of the plasma membrane was quantified by cell uptake of the small (4 kDa) FITC-labeled Dextran. Fluorescence intensity changes due to internalized FITC-labeled Dextran and auto fluorescence of over 20,000 cells per sample was measured using a fluorescence-activated cell sorting (FACS) Calibur system (BD Biosciences, New Jersey) with the fluorescence channel. […] For each pre-treatment (and growth media) condition 4 measurements were collected: strain-loaded cells with or without added dextran, and unstrained control cells with or without dextran; samples without dextran provide a control for native cell auto-fluorescence (AF). The percent change in dextran uptake is calculated by the mean value of the strained sample relative to the unstrained samples, after subtracting the auto-fluorescence for each. […]

NIH3T3 fibroblasts [3] = assay: as above; format: cell-based, murine; details: increasing concentrations of NaPy pre-treatment (0, 1, 5 mM, 4 hours), 12% strain 3 hrs
Description: as §1, §2, §3

C2C12 myoblasts [4] = assay: Gap closure of damaged monolayers with low/medium-level stretching; format: cell-based, Mouse
Description: (§4) Mouse myoblast or fibroblast cells (1×10^6 per well, previously grown media containing 1 mM NaPy) were seeded 1-3 days prior to performing a stretching experiment in a six-well (31-mm diameter) culture plate with an elastic, 0.51-mm thick, transparent and collagen-coated substrata bottom (Flexcell Inc., Burlington, N.C.). Cells were grown on the stretchable-bottom plate until a confluent monolayer had formed. The plates with cells were then mounted onto our stretching apparatus and radial stretching to tensile strains of 3% or 6% or 0% (no-stretch) control was applied Immediately following stretching, compressive deformation damage was induced in each monolayer using a rigid optic fiber (˜350 μm diameter). Cells at the center of each well were crushed, inducing an approximately circular cell-damage area with varying sizes (0.05-0.5 mm^2). Media was replaced to remove any cell debris and the fresh media contained varying concentrations of sodium pyruvate: 0, 1 or 5 mM. Then the time-dependent gap closure was evaluated to reveal kinematic features The stretching apparatus was mounted in the motorized microscope stage to facilitate for time-lapse imaging of progression of the gap closure. Cell viability throughout the prolonged experiments was ensured by maintaining 37° C., 5% CO2 and high humidity, using an incubator that enclosed the microscope (Life Imaging Services, Basel, Switzerland).
(§5) Time-lapse imaging was performed using a fully motorized, inverted fluorescence microscope (Olympus IX81, Tokyo, Japan) with a custom MATLAB 2012b (The MathWorks, Natick, Mass.) graphical user interface (GUI) module to automatically control lens positioning and collect images of the gap every 10 minutes for up to 24 hours. Images were taken using an XR Mega-10AWCL camera (Stanford Photonics Inc., Palo Alto, Calif.), using a 10×/NA 0.3 long working-distance, air immersion objective lens at a final magnification of 646.8 nm/pixel. A custom algorithm in MATLAB 2012b was used to automatically analyze the time-progression images of the gap area closure and quantify cell migration and gap closure progression, as described in Topman et al. (Micron 51:9-12; 2012); Toume et al. Int Wound J 14:698-703; 2017). Briefly, the time-dependent area was fit to a Richard's function, which is an asymmetric sigmoid, by minimizing the mean squared error. Using the fitted curve, the maximum migration rate was calculated, which is the maximal slope of the area vs. time, Richards fit. The normalized maximum migration rate was obtained by dividing the maximum migration rate by the initial gap area. In addition, the time for 90% gap area closure, which is indicative of the end of the en masse cell migration regime was obtained (Topman et al. 2012; Med Eng Phys 34:225-232).
(§6) Results of the different conditions were compared using a two-way analysis of variance (ANOVA) for unequal length samples; Statistical analysis was performed in MATLAB. The interaction parameter was found significant, thus the interactions between the sodium pyruvate concentration and the stretching level and were important; in cases where only the interaction parameter the interaction is considered ‘simple’ by typical definitions in statistical analysis. A one-way ANOVA was also performed in conjunction with post-hoc Tukey-Kramer tests to identify statistically significant differences levels of sodium pyruvate for each level of stretching and vice versa. A P-value lower than 0.05 was considered significant.
(§7) Both tested cell types, C2C12 myoblasts and NIH3T3 fibroblasts were cultured in media with 1 mM sodium pyruvate up to the time of infliction of compressive deformation damage (micro-gap formation) and concurrent application of radial stretching. […]

NIH3T3 fibroblasts [5] = assay: as above; format: cell-based, Mouse; details: 0% stretching, post-injury NaPy 0, 1 or 5 mM
Description: as §4, §5, §6, §7

[6] = cited from earlier work
[7] = group given NaPy eye drops, 2 hours prior to extraction; control 0.145+/−0.06 mM; cited from earlier work
[8] = 1 mM NaPy with 3% stretching vs no NaPy
[9] = 5 mM NaPy with 3% stretching vs no NaPy
[10] = adopted from the literature, model input

Row | SMILES | transdermal flux [1] | cell damage-induced uptake of dextran relative to control (C2C12 myoblasts [2]; NaPy pre-treatment 0, 1, 5 mM for 4 hours, then 12% sustained stretch 3 hrs) | strain-damage induced membrane poration (C2C12 myoblasts [2]; cultured in media containing 1 mM NaPy, pre-treated with 5 mM NaPy, 12% strain 3 hrs) | damage to membrane integrity (uptake relative to control) (NIH3T3 fibroblasts [3]) | gap closure rate (C2C12 myoblasts [4]; 0% stretching, post-injury NaPy 0, 1 or 5 mM) | normalized gap-closure rate (C2C12 myoblasts [4]; 1 mM NaPy post-injury with 3% stretching (16.3 without NaPy)) | time to reach 90% gap coverage (C2C12 myoblasts [4]; 1 mM NaPy with 3% stretching (9.2 hrs without NaPy)) | decrease of time to reach 90% gap coverage (C2C12 myoblasts [4]; [8]) | increase of normalized gap-closure rate (C2C12 myoblasts [4]; [8]) | normalized gap-closure rate (C2C12 myoblasts [4]; 5 mM NaPy post-injury with 3% stretching (16.3 without NaPy)) | time to reach 90% gap coverage (C2C12 myoblasts [4]; 5 mM NaPy with 3% stretching (9.2 hrs without NaPy)) | decrease of time to reach 90% gap coverage (C2C12 myoblasts [4]; [9]) | increase of normalized gap-closure rate (C2C12 myoblasts [4]; [9]) | gap closure (C2C12 myoblasts [4]; 3% strain combined with post-injury exogenous NaPy supplement (1 or 5 mM)) | gap closure rate (NIH3T3 fibroblasts [5]) | Solubility in the aqueous phase of the dressing and tissues [6, 10] | diffusivity in the aqueous phase of the dressing and tissues [6, 10] | free diffusivity in the aqueous phase of the dressing and tissues [6, 10] | log Ko/W ([6]; input of the Kp equation) | level of NaPy in corneal tissue [7]
1 | O=C(O)Cc1ccccc1Nc1c(Cl)cccc1Cl [Diclofenac Sodium] | 0.321-0.943 nmol/cm^2·h | – | – | – | – | – | – | – | – | – | – | – | – | – | – | – | – | – | – | –
2 | CC(=O)C(=O)[O-].[Na+] [NaPy, sodium pyruvate] | – | a reduction was observed in the cell damage-induced uptake of dextran relative to control that is proportional to the NaPy concentration | a reduction was observed in the strain-damage induced membrane poration to insignificant levels | reduced damage to membrane integrity | unaffected | 20.5 % area/hr | 7.3 h | 21% | 26% | 23.7 % area/hr | 6.3 h | 31% | 46% | successfully accelerated gap closure in a concentration dependent and statistically significant manner | unaffected | 100 mg/mL | 0.0005 mm^2/s | 0.001 mm^2/s | −5.05 | 0.35 to 0.525 mM
